Test results published in patent publication US20140170159A9, “Conditionally active anti-epidermal growth factor receptor antibodies and methods of use thereof” (priority 2012, published 2014).
Marks after values point to notes of the source that are not given here.

Legend:
[1] = tested on: A431 xenograft tumors; assay: A431 xenograft tumor growth, Cetuximab and cisplatin combination; type: in vivo, male nude mice; settings: day 14
Method: Specifically, the test article(s) were administered on days 0, 4, 7, 11, and 14.
Tumor growth, measured as tumor volume (mm^3), was determined on days—1, 4, 7, 11 and 14 using digital calipers and calculation as described in Example 8. Tumor growth inhibition (TGI) for the treatment groups was calculated using the formula: % TGI=[1−(TB−TA)/(CB−CA)]×100; where TB is the average tumor volume (mm^3) in the treatment group at day 14, TA is the average tumor volume (mm^3) in the treatment group the day before the first treatment (day—1), CB is the average tumor volume in the vehicle only control group at day 14, and CA is the average tumor volume in the vehicle only control group the day before the first treatment (day—1) (see, e.g., Teicher B A and Andrews P A: Anticancer Drug Development, Guide: Preclinical Screening, Clinical Trials and Approval, 2nd edition.

[2] = tested on: A431 xenograft tumors; assay: A431 xenograft tumor growth, Cetuximab vs. HC-Y104D and cisplatin; type: in vivo, male nude mice; settings: 5 mg/kg cisplatin IV twice per week, day 14
Method: Subcutaneous A431 xenograft tumors were established in male nude mice as described above. […] Specifically, the test article(s) were administered on days 0, 4, 7 and 11. Tumor volume (mm^3) was determined on days—1, 4, 7, 11 and 14 as described previously.

N.N.[Cl][Pt][Cl] [cisplatin]
tumor growth inhibition (TGI) ([1]; 5 mg/kg cisplatin alone): 34.2%
% Tumor Growth Inhibition ([1]; Cisplatin 5 mg/kg ([…]) IV twice per week): 34.2* %
% Tumor Growth Inhibition ([1]; Cisplatin […] (0.04 mg/mouse) IV twice per week): 16.7%
reduction in tumor growth [2]: about 45%
